This passage reports IC50 results from US7057048B2, “Androgen receptor antagonists” (Warner Lambert Company LLC, priority 2003, dated 2006).

As a reminder, the IC50 is the midpoint of a concentration-inhibition curve. The low end stands for greater potency in that assay, the high end for weaker potency in that assay.

The test deals with T1, androgen receptor (Homo sapiens, UniProt P10275).
T1 sequence (P10275 1-920 Q868H): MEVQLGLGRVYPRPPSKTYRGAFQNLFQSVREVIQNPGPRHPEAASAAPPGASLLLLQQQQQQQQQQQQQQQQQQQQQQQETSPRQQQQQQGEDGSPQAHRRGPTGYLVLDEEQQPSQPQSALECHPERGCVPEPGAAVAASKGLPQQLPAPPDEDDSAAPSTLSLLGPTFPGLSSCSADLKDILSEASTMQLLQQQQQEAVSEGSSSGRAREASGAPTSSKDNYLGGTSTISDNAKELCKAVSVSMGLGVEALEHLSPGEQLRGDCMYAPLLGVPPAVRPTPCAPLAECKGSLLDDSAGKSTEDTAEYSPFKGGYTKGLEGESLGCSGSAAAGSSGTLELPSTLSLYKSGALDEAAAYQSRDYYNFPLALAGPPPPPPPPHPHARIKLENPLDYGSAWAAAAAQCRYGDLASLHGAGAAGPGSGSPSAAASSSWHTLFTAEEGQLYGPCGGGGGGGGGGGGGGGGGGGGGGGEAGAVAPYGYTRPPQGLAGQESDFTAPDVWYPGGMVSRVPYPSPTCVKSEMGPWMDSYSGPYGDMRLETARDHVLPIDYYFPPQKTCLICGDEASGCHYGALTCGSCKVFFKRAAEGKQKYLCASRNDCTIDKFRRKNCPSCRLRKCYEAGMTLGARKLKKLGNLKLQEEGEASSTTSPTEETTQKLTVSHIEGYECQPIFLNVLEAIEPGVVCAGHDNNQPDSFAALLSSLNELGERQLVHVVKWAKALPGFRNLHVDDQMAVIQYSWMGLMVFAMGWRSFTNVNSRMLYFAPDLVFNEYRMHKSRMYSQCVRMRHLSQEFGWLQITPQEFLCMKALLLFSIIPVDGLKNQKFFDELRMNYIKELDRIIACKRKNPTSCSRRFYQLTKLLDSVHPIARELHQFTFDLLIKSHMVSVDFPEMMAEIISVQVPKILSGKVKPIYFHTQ
As to the kind of experiment: AR Antagonist Cell Assay (MMTV-luciferase reporter, DHT-stimulated). Type of test: cell-based. The following applies: MDA-MB453-MMTV clone 54-19 cells, inhibition of induction by 100 pM DHT, 17 hr. On the procedure:
The compounds ability to antagonize the effects of androgen on the androgen receptor were determined in the protocol described immediately below.
Experimental Procedure for AR Antagonist Cell Assay
Cell line: MDA-MB453-MMTV clone 54-19. This cell line is a stable transfected cell line with MDA-MB453 cell background (human breast tumor cell expressing high level of androgen receptor). A MMTV minimal promoter containing ARE was first cloned in front of a firefly luciferase reporter gene. Then the cascade was cloned into transfection vector pUV120puro. Electroporation method was used for transfecting MDA-MB-453 cell. Puromycin resistant stable cell line was selected.
Cell Culture Media and Reagents:
Culture medium: DMEM (high glucose, Gibco cat #: 11960-044), 10% FBS, and 1% L-glutamine
Plating medium: DMEM (phenol red free), 10% charcoal treated HyClone serum, 1% L-glutamine
Assay medium: DMEM (phenol red free), 1% charcoal treated HyClone serum, 1% L-glutamine, and 1% penicillin/streptomycin
3×luciferase buffer: 2% beta-mercaptoethanol, 0.6% ATP, 0.0135% luciferine in cell lysis buffer
• 1. Cells are maintained in culture medium, splitting cells when they reach 80–90% confluence • 2. To test compounds, 10,000 cells/well are plated to opaque 96 cell culture plate in 100 ul/well plating medium, culture for overnight at 37° C. in cell culture incubator • 3. Carefully remove plating medium, then add 80 ul/well of pre-warmed assay medium, add 10 ul/well testing compound (final concentration at 10 uM or 1 uM), incubate at 37° C. for 30 minutes • 4. Add 10 ul/well freshly prepared DHT (final concentration at 100 pM) to each well, incubate at 37° C. for 17 hr (overnight) • 5. Add 50 ul/well 3×luciferase buffer, incubate at room temperature for 5 minutes, then count on Luminometer
The fold induction over background by 100 pM DHT in the absence of testing compounds is standardized as 100% and experimental result is expressed as percentage of inhibition by testing compounds.
(In general: A reporter such as luciferase makes a cellular process visible.)
Take `O=c1cc(C(F)(F)F)c2cc(Cc3ccc(S(=O)(=O)N4CCCC4)cc3)ccc2[nH]1` [Example 20, 6-[4-(Pyrrolidine-1-sulfonyl)benzyl]-4-trifluoromethyl-1H-quinolin-2-one]: the IC50 was > 10 µM.

Consider `O=C(CN1CCN(S(=O)(=O)c2ccc(Cc3ccc4[nH]c(=O)cc(C(F)(F)F)c4c3)cc2)CC1)N1CCCC1` [Example 13, 6-{4-[4-(2-Oxo-2-pyrrolidin-1-ylethyl)piperazine-1-sulfonyl]benzyl}-4-trifluoromethyl-1H-quinolin-2-one], for which the IC50 is > 10 µM.

Compound `O=c1cc(C(F)(F)F)c2cc(Cc3ccc(S(=O)(=O)N4CCCCC4c4cccnc4)cc3)ccc2[nH]1` (centres unmarked) [Example 14, 6-[4-(3,4,5,6-Tetrahydro-2H-[2,3′]bipyridinyl-1-sulfonyl)benzyl]-4-trifluoromethyl-1H-quinolin-2-one] yielded an IC50 of 4.7 µM.

As for `O=c1cc(C(F)(F)F)c2cc(Cc3ccc(S(=O)(=O)N4CCC5(CC4)OCCO5)cc3)ccc2[nH]1` [Example 6, 6-[4-(1,4-Dioxa-8-azaspiro[4.5]decane-8-sulfonyl)benzyl]-4-trifluoromethyl-1H-quinolin-2-one], the concentration for half-maximal inhibition (IC50) is > 10 µM.

The compound `COc1ccc(N2CCN(S(=O)(=O)c3ccc(Cc4ccc5oc(=O)cc(C(F)(F)F)c5c4)cc3)CC2C)cc1` (centres unmarked) [Example 32, 6-{4-[4-(4-Methoxyphenyl)-3-methylpiperazine-1-sulfonyl]benzyl}-4-trifluoromethylchromen-2-one] registered a concentration for half-maximal inhibition (IC50) of 9.3 µM.

As to `O=c1cc(C(F)(F)F)c2cc(Cc3ccc(S(=O)(=O)N4CCC5(CC4)OCCO5)cc3)ccc2o1` [Example 36, 6-[4-(1,4-Dioxa-8-azaspiro[4.5]decane-8-sulfonyl)benzyl]-4-trifluoromethylchromen-2-one], the IC50 was determined as 7.2 µM.

As to `CC1CCN(S(=O)(=O)c2ccc(Cc3ccc4[nH]c(=O)cc(C(F)(F)F)c4c3)cc2)CC1` [Example 15, 6-[4-(4-Methylpiperidine-1-sulfonyl)benzyl]-4-trifluoromethyl-1H-quinolin-2-one], the IC50 was > 10 µM.

Take `O=c1cc(C(F)(F)F)c2cc(Cc3ccc(S(=O)(=O)N4CCCCC4)cc3)ccc2[nH]1` [Example 23, 6-[4-(Piperidine-1-sulfonyl)benzyl]-4-trifluoromethyl-1H-quinolin-2-one]: the IC50 was > 10 µM.

Take `COc1cc2c(cc1OC)CN(S(=O)(=O)c1ccc(Cc3ccc4oc(=O)cc(C(F)(F)F)c4c3)cc1)CC2` [Example 35, 6-[4-(6,7-Dimethoxy-3,4-dihydro-1H-isoquinoline-2-sulfonyl)benzyl]-4-trifluoromethylchromen-2-one]: half-maximal inhibition (IC50) required 1.2 µM.

Turning to `O=c1cc(C(F)(F)F)c2cc(Cc3ccc(S(=O)(=O)N4CCCCCC4)cc3)ccc2o1` [Example 57, 6-[4-(Azepane-1-sulfonyl)benzyl]-4-trifluoromethylchromen-2-one], the IC50 came to 6.8 µM.

Compound `O=c1cc(C(F)(F)F)c2cc(Cc3ccc(S(=O)(=O)N4CCCC(CO)C4)cc3)ccc2o1` (centres unmarked) [Example 45, 6-[4-(3-Hydroxymethyl-piperidine-1-sulfonyl)benzyl]-4-trifluoromethylchromen-2-one] yielded an IC50 of 7.6 µM.

With `CCOCCN1CCN(S(=O)(=O)c2ccc(Cc3ccc4oc(=O)cc(C(F)(F)F)c4c3)cc2)CC1` [Example 62, 6-{4-[4-(2-Ethoxyethyl)piperazine-1-sulfonyl]benzyl}-4-trifluoromethylchromen-2-one], the IC50 was > 10 µM.

As to `CCOC(=O)N1CCN(S(=O)(=O)c2ccc(Cc3ccc4oc(=O)cc(C(F)(F)F)c4c3)cc2)CC1` [Example 29, 4-[4-(2-Oxo-4-trifluoromethyl-2H-chromen-6-ylmethyl)-benzenesulfonyl]piperazine-1-carboxylic acid ethylester], the IC50 is > 10 µM.

On to `O=c1cc(C(F)(F)F)c2cc(Cc3ccc(S(=O)(=O)N4CCN(CCOCCO)CC4)cc3)ccc2o1` [Example 42, 6-(4-{4-[2-(2-Hydroxyethoxy)ethyl]-piperazine-1-sulfonyl}benzyl)-4-trifluoromethylchromen-2-one], for which the IC50 was > 10 µM.

Compound `CC1CN(S(=O)(=O)c2ccc(Cc3ccc4oc(=O)cc(C(F)(F)F)c4c3)cc2)CC(C)O1` (centres unmarked) [Example 60, 6-[4-(2,6-Dimethylmorpholine-4-sulfonyl)benzyl]-4-trifluoromethylchromen-2-one] gave an IC50 of 0.52 µM.

Take `O=c1cc(C(F)(F)F)c2cc(Cc3ccc(S(=O)(=O)N4CCC(O)(c5cccs5)CC4)cc3)ccc2o1` [Example 33, 6-[4-(4-Hydroxy-4-thiophen-2-ylpiperidine-1-sulfonyl)benzyl]-4-trifluoromethylchromen-2-one]: inhibition was half-maximal at 8.6 µM (IC50).

In the case of `O=c1cc(C(F)(F)F)c2cc(Cc3ccc(S(=O)(=O)N4CCCCC4CO)cc3)ccc2o1` (centres unmarked) [Example 37, 6-[4-(2-Hydroxymethyl-piperidine-1-sulfonyl)benzyl]-4-trifluoromethylchromen-2-one], inhibition was half-maximal at 5.3 µM (IC50).

Regarding `O=c1cc(C(F)(F)F)c2cc(Cc3ccc(S(=O)(=O)N4CCCCC4CO)cc3)ccc2[nH]1` (centres unmarked) [Example 7, 6-[4-(2-Hydroxymethylpiperidine-1-sulfonyl)benzyl]-4-trifluoromethyl-1H-quinolin-2-one], the IC50 is 9.8 µM.

For the compound `O=c1cc(C(F)(F)F)c2cc(Cc3ccc(S(=O)(=O)N4CCN(CCO)CC4)cc3)ccc2[nH]1` [Example 10, 6-{4-[4-(2-Hydroxyethyl)piperazine-1-sulfonyl]benzyl}-4-trifluoromethyl-1H-quinolin-2-one], the IC50 was > 10 µM.

With `COC(=O)[C@@H]1CCCN1S(=O)(=O)c1ccc(Cc2ccc3[nH]c(=O)cc(C(F)(F)F)c3c2)cc1` [Example 9, 1-[4-(2-Oxo-4-trifluoromethyl-1,2-dihydroquinolin-6-ylmethyl)benzenesulfonyl]-pyrrolidine-2-carboxylicacid methyl ester], the midpoint of inhibition, the IC50, lay at 5.4 µM.

In turn, `O=c1cc(C(F)(F)F)c2cc(Cc3ccc(S(=O)(=O)N4CCCN(CCc5ccccc5)CC4)cc3)ccc2o1` [Example 54] yielded an IC50 of 2.5 µM.

Take `O=c1cc(C(F)(F)F)c2cc(Cc3ccc(S(=O)(=O)N4CCCc5ccccc54)cc3)ccc2[nH]1` [Example 26, 6-[4-(3,4-Dihydro-2H-quinoline-1-sulfonyl)benzyl]-4-trifluoromethyl-1H-quinolin-2-one]: the IC50 is 2 µM.

`CC1CCCCN1S(=O)(=O)c1ccc(Cc2ccc3oc(=O)cc(C(F)(F)F)c3c2)cc1` (centres unmarked) [Example 58, 6-[4-(2-Methylpiperidine-1-sulfonyl)benzyl]-4-trifluoromethylchromen-2-one] showed an IC50 of 9.8 µM.

Regarding `COc1ccc(N2CCN(S(=O)(=O)c3ccc(Cc4ccc5[nH]c(=O)cc(C(F)(F)F)c5c4)cc3)CC2C)cc1` (centres unmarked) [Example 3, 6-{4-[4-(4-Methoxyphenyl)-3-methylpiperazine-1-sulfonyl]benzyl}-4-trifluoromethyl-1H-quinolin-2-one], the IC50 is > 10 µM.

With `O=c1cc(C(F)(F)F)c2cc(Cc3ccc(S(=O)(=O)N4CCCCC4CCO)cc3)ccc2o1` (centres unmarked) [Example 51, 6-{4-[2-(2-Hydroxyethyl)piperidine-1-sulfonyl]benzyl}-4-trifluoromethylchromen-2-one], the IC50 was > 10 µM.

With `O=c1cc(C(F)(F)F)c2cc(Cc3ccc(S(=O)(=O)N4CCCC4CO)cc3)ccc2o1` (centres unmarked) [Example 52, 6-[4-(2-Hydroxymethyl-pyrrolidine-1-sulfonyl)benzyl]-4-trifluoromethylchromen-2-one], it took 3.4 µM to reach half-maximal inhibition (IC50).
